In ChEMBL document CHEMBL1146381, “Synthesis, stereochemistry and antimicrobial evaluation of t(3)-benzyl-r(2),c(6)-diarylpiperidin-4-one and its derivatives” (2007):
In brackets after ≈: the same amount, converted by molar mass.

What was measured:
Assay type in all cases: functional
Pseudomonas aeruginosa = test: Antibacterial activity against Pseudomonas aeruginosa
Escherichia coli = test: Antibacterial activity against Escherichia coli
Klebsiella pneumoniae = test: Antibacterial activity against Klebsiella pneumoniae
Enterococcus faecalis = test: Antibacterial activity against Streptococcus faecalis
Bacillus subtilis = test: Antibacterial activity against Bacillus subtilis
Cryptococcus neoformans = test: Antifungal activity against Cryptococcus neoformans
Candida [1] = test: Antifungal activity against Candida 6
Candida [2] = test: Antifungal activity against Candida 51
Aspergillus niger = test: Antifungal activity against Aspergillus niger
Aspergillus flavus = test: Antifungal activity against Aspergillus flavus

Row | SMILES | MIC (Pseudomonas aeruginosa) | MIC (Escherichia coli) | MIC (Klebsiella pneumoniae) | MIC (Enterococcus faecalis) | MIC (Bacillus subtilis) | MIC (Cryptococcus neoformans) | MIC (Candida [1]) | MIC (Candida [2]) | MIC (Aspergillus niger) | MIC (Aspergillus flavus)
1 | O=C1CC(c2ccco2)NC(c2ccco2)C1Cc1ccccc1 (stereo not drawn) | 25 µg/mL (≈ 77.8 µM) | 12.5 µg/mL (≈ 38.9 µM) | 12.5 µg/mL (≈ 38.9 µM) | 12.5 µg/mL (≈ 38.9 µM) | 50 µg/mL (≈ 156 µM) | 25 µg/mL (≈ 77.8 µM) | 25 µg/mL (≈ 77.8 µM) | 25 µg/mL (≈ 77.8 µM) | 50 µg/mL (≈ 156 µM) | 50 µg/mL (≈ 156 µM)
2 | O/N=C1\CC(c2ccco2)NC(c2ccco2)C1Cc1ccccc1 (stereo not drawn) | 12.5 µg/mL (≈ 37.2 µM) | 12.5 µg/mL (≈ 37.2 µM) | 6.25 µg/mL (≈ 18.6 µM) | 12.5 µg/mL (≈ 37.2 µM) | 25 µg/mL (≈ 74.3 µM) | 6.25 µg/mL (≈ 18.6 µM) | 25 µg/mL (≈ 74.3 µM) | 12.5 µg/mL (≈ 37.2 µM) | 6.25 µg/mL (≈ 18.6 µM) | 25 µg/mL (≈ 74.3 µM)
3 | O=C1CC(c2ccccc2)NC(c2ccccc2)C1Cc1ccccc1 (stereo not drawn) | – | 12.5 µg/mL (≈ 36.6 µM) | 100 µg/mL (≈ 293 µM) | 50 µg/mL (≈ 146 µM) | 12.5 µg/mL (≈ 36.6 µM) | – | 50 µg/mL (≈ 146 µM) | 50 µg/mL (≈ 146 µM) | 100 µg/mL (≈ 293 µM) | 50 µg/mL (≈ 146 µM)
4 | O/N=C1\CC(c2ccccc2)NC(c2ccccc2)C1Cc1ccccc1 (stereo not drawn) | 25 µg/mL (≈ 70.1 µM) | 12.5 µg/mL (≈ 35.1 µM) | 12.5 µg/mL (≈ 35.1 µM) | 25 µg/mL (≈ 70.1 µM) | 25 µg/mL (≈ 70.1 µM) | 25 µg/mL (≈ 70.1 µM) | 50 µg/mL (≈ 140 µM) | 12.5 µg/mL (≈ 35.1 µM) | 100 µg/mL (≈ 281 µM) | 50 µg/mL (≈ 140 µM)
5 | O=CN1C(c2ccccc2)CC(=O)C(Cc2ccccc2)C1c1ccccc1 (stereo not drawn) | 12.5 µg/mL (≈ 33.8 µM) | 25 µg/mL (≈ 67.7 µM) | 6.25 µg/mL (≈ 16.9 µM) | 25 µg/mL (≈ 67.7 µM) | 25 µg/mL (≈ 67.7 µM) | 12.5 µg/mL (≈ 33.8 µM) | 25 µg/mL (≈ 67.7 µM) | 12.5 µg/mL (≈ 33.8 µM) | 50 µg/mL (≈ 135 µM) | 25 µg/mL (≈ 67.7 µM)
6 | O=CN1C(c2ccccc2)C/C(=N\O)C(Cc2ccccc2)C1c1ccccc1 (stereo not drawn) | 50 µg/mL (≈ 130 µM) | 25 µg/mL (≈ 65 µM) | 6.25 µg/mL (≈ 16.3 µM) | 25 µg/mL (≈ 65 µM) | 25 µg/mL (≈ 65 µM) | 6.25 µg/mL (≈ 16.3 µM) | 12.5 µg/mL (≈ 32.5 µM) | 12.5 µg/mL (≈ 32.5 µM) | 25 µg/mL (≈ 65 µM) | 12.5 µg/mL (≈ 32.5 µM)
7 | C[C@@H]1[C@H](O)[C@@H](C)/C=C/C=C/C=C/C=C/C=C/C=C/C=C/[C@H](O[C@@H]2O[C@H](C)[C@@H](O)[C@H](N)[C@@H]2O)C[C@@H]2O[C@](O)(C[C@@H](O)C[C@@H](O)[C@H](O)CC[C@@H](O)C[C@@H](O)CC(=O)O[C@H]1C)C[C@H](O)[C@H]2C(=O)O [AMPHOTERICIN B] | – | – | – | – | – | 25 µg/mL (≈ 27.1 µM) | 25 µg/mL (≈ 27.1 µM) | 25 µg/mL (≈ 27.1 µM) | 50 µg/mL (≈ 54.1 µM) | 50 µg/mL (≈ 54.1 µM)
8 | CN[C@@H]1[C@H](O[C@H]2[C@H](O[C@H]3[C@H](O)[C@@H](O)[C@H](N=C(N)N)[C@@H](O)[C@@H]3N=C(N)N)O[C@@H](C)[C@]2(O)C=O)O[C@@H](CO)[C@H](O)[C@H]1O [STREPTOMYCIN] | 25 µg/mL (≈ 43 µM) | 12.5 µg/mL (≈ 21.5 µM) | 25 µg/mL (≈ 43 µM) | 50 µg/mL (≈ 86 µM) | 12.5 µg/mL (≈ 21.5 µM) | – | – | – | – | –
